The record followed here is article PMC10671693, “Design, Synthesis, and Antitumor Activity Evaluation of Proteolysis-Targeting Chimeras as Degraders of Extracellular Signal-Regulated Kinases 1/2” (International Journal of Molecular Sciences, 2023).

As a reminder, the IC50 is the concentration that gives 50% inhibition. In general, melting point refers to the temperature of the solid-liquid transition. One may read the DC50 as the concentration at which degradation of the target reaches its halfway point. A high value points to degradation only at high concentration.

Structures are written as SMILES. Entries after “also recorded” stand apart in the source; their conditions may differ. A value given as a limit tells only on which side of the number the result lay.

In one data set the test system is A375 cells. The data set is described as follows: Cell proliferation (CCK8) assay, A375. It counts as cell-based. The note with it: Homo sapiens, A-375, A375, 72 h, read-out: IC50 (growth inhibition, cytotoxicity). Here is the method:
(§1) A375, HCT116, Calu-6, and B16-F10 cells were purchased from American Type Culture Collection (ATCC) and cultured in DMEM high glucose media (SH30022.01, Cytiva, Shanghai, China) supplemented with 10% fetal bovine serum (10099-144, Gibco, Carlsbad, CA, USA) and 1% penicillin/streptomycin (Solarbio, Beijing, China) in an incubator at 37 °C with 5% CO2.
(§2) A 96-well plate (3599, Corning, New York, NY, USA) was inoculated with 100 μL of complete medium containing 10,000 cells, and the experimental, control, and blank groups were established. Three parallel wells were used per concentration. After 10 h, the media from the experimental and control groups were replaced with a compound containing the indicated concentration of the complete medium. Cells were incubated for 72 h before 10 μL of CCK8 reagent (CA1210, Solarbio, Beijing, China) was added to each well and incubated for 1 h. Using a microplate reader (Tecan, Mannendorf, Switzerland), the absorbance at 450 nm was measured. The IC50 values were determined using GraphPad Prism 8 and nonlinear regression curve fitting.

Another data set deals with Calu-6 cells. The data set is described as follows: Cell proliferation (CCK8) assay, Calu-6. The following applies: Homo sapiens, Calu-6, 72 h, read-out: IC50 (growth inhibition, cytotoxicity). It counts as cell-based. Here is the method:
as §1, §2

For the next data set, the system named is HCT116 cells. Nature of the data set: Cell proliferation (CCK8) assay, HCT116. It is filed as cell-based, human. The note with it: Homo sapiens, HCT-116, 72 h, HCT116, 72 h, read-out: IC50 (growth inhibition, cytotoxicity). Here is the method:
as §1, §2

In the next data set the test system is HCT116 tumor. Nature of the data set: HCT116 subcutaneous xenograft model in nude mice. It counts as in vivo. The note with it: mouse, in vivo. Here is the method:
Male BALB/c nude mice of around 8 weeks old were purchased from Charles River (Beijing, China). Nude mice were raised in SPF-grade animal rooms and had access to water and food ad libitum. HCT116 colorectal cancer cells were grown in DMEM supplemented with 10% fetal calf serum and 1% penicillin/streptomycin under standard cell culture conditions. HCT116 xenografts were prepared by subcutaneously injecting 5× 10^6 cells suspended in PBS into the right flank of each male BALB/c nude mouse. Tumor growth was monitored via caliper measurement, and volume was calculated using the following equation: 0.5 × max (length/width) × min (length/width) × min (length/width). When the tumors reached an average of approximately 100 mm^3, the mice were randomized into groups of five. The mice were injected intraperitoneally once a day at doses of 6, 12, 25 mg/kg compound B1-10J and 25 mg/kg 5-FU. Body weights and tumor volumes were measured every 2–3 days. All studies were appropriately statistically powered.

For another data set, the system named is ERK1/2. The data set is described as follows: Western blot ERK1/2 protein degradation assay in A375 cells. It counts as cell-based, human. The following applies: 48 h; for ERK1/2 degradative activity (in words): Western blot; for DC50: Western blotting and grayscale quantification; for DCmax: Western blot with grayscale quantification. Here is the method:
as §1
Cells were cultured under the indicated conditions as described in “Cell culture”. Cells were seeded in 6-well plates (3516, Corning, New York, NY, USA). Compounds were dissolved in DMSO for storage (10 mM). Following compound treatment, cells were washed with PBS, scraped from the plate, and lysed using cell lysis buffer (Applygen, Beijing, China). After the protein in the cell lysate was quantified via the BCA quantification method, the samples were placed in a metal bath at 100 °C and heated for 5 min. Cell lysates were separated using a 10% SDS–PAGE gel and transferred to PVDF membranes (Merck Millipore, Burlington, MA, USA). The PVDF membrane was blocked with 5% nonfat dry milk in TBST for one hour. The PVDF membrane was transferred to the antibody diluent and incubated overnight at 4 °C. PVDF membranes were washed three times with TBST for 5 min each and then incubated with the appropriate HRP-conjugated secondary antibody for 1 h at room temperature. After washing three more times with TBST, the PVDF membrane was stained with a hypersensitive ECL chemiluminescence reagent (Biodragon, Beijing, China) and then imaged with Tanon 5200. Grayscale quantitative analysis was performed using ImageJ software. Statistical analysis was performed using GraphPad Prism 8. DC50 and Dmax values were fitted using a four-parameter [inhibitor] versus response and reported directly from the Prism output. Mean ± SD and unpaired t tests were performed in GraphPad Prism.
In general terms: Immunoblotting shows a protein as a band on a membrane.

As for `CNCCC#Cc1cc(Nc2ncc(C)c(-c3cc4n(c3)C[C@@H](C)N(Cc3cccc(C)n3)C4=O)n2)ccn1` [B-J], the half-maximal inhibitory concentration (IC50) turned out to be 16.8 ± 3 µM in the data set with A375 cells, 6.5 ± 1.3 µM with Calu-6 cells and 17.8 ± 3.9 µM in the data set with HCT116 cells.

For `O=c1[nH]cc(F)c(=O)[nH]1` [Compound 5-FU, 5-fluorouracil, reference compound], the “body weight / tolerability” value in the data set on HCT116 tumor is on record as “trend of weight loss”.

Regarding `Cc1cccc(CN2C(=O)c3cc(-c4nc(Nc5ccn(CCCCNC(=O)CCCCCCCCCNc6cccc7c6C(=O)N(C6CCC(=O)NC6=O)C7=O)n5)ncc4C)cn3C[C@H]2C)n1` (stereo partly shown) [Compound B1-10BZ], in the data set with ERK1/2, the “ERK1/2 degradative activity (in words)” value was “degradative activity disappeared; also recorded: no degradative activity was observed”.

Regarding `Cc1cccc(CN2C(=O)c3cc(-c4nc(Nc5cccc(C#CCCNC(=O)CCCCCCCCCNc6cccc7c6C(=O)N(C6CCC(=O)NC6=O)C7=O)c5)ncc4C)cn3C[C@H]2C)n1` (stereo partly shown) [Compound B1-10B], in the data set with ERK1/2, the “ERK1/2 degradative activity (in words)” value is recorded as “no degradative activity was observed”.

For the compound `Cc1cccc(CN2C(=O)c3cc(-c4nc(Nc5ccnc(NCCCNC(=O)CCCCCCCCCNc6cccc7c6C(=O)N(C6CCC(=O)NC6=O)C7=O)c5)ncc4C)cn3C[C@H]2C)n1` (stereo partly shown) [Compound B1-10N], the melting point fell in the range of 110 to 111 °C. Further, the “ERK1/2 degradative activity (in words)” value with ERK1/2 was “degradative activity disappeared”.

Regarding `Cc1cccc(CN2C(=O)c3cc(-c4nc(Nc5ccnc(C#CCCN6CCN(CCCCCCCCNc7cccc8c7C(=O)N(C7CCC(=O)NC7=O)C8=O)CC6)c5)ncc4C)cn3C[C@H]2C)n1` (stereo partly shown) [Compound B1-10P], the IC50 was over 30 µM in the data set on A375 cells, over 30 µM in the data set on Calu-6 cells and 2.2 ± 0.6 µM in the data set on HCT116 cells. Besides, the “ERK1/2 degradative activity (in words)” value in the data set on ERK1/2 was “slightly increased DC50; also recorded: effective ERK1/2 degraders”. This compound also yielded a DC50 in the data set with ERK1/2 of 0.616 ± 0.389 µM.

`Cc1cccc(CN2C(=O)c3cc(-c4nc(Nc5ccnc(C#CCCNC(=O)CCCCCCCCCNc6cccc7c6C(=O)N(C6CCC(=O)NC6=O)C7=O)c5)ncc4C)cn3C[C@H]2C)n1` (stereo partly shown) [Compound B1-10]: in the data set on A375 cells, the IC50 is over 30 µM. In addition, the 50% inhibitory concentration (IC50) in the data set with Calu-6 cells was over 30 µM. For the same compound, the IC50 in the data set on HCT116 cells was over 30 µM. Also, in the data set on ERK1/2, the “ERK1/2 degradative activity (in words)” value is reported as “effective ERK1/2 degraders”, the DCmax entry is “exceeding 65%” and the DC50 came out at 0.333 ± 0.169 µM.

As to `Cc1cccc(CN2C(=O)c3cc(-c4nc(Nc5ccnc(C#CCCNC(=O)CCCCCCCCC(=O)N[C@H](C(=O)N6C[C@H](O)C[C@H]6C(=O)N[C@@H](C)c6ccc(-c7scnc7C)cc6)C(C)(C)C)c5)ncc4C)cn3C[C@H]2C)n1` [Compound B2-10], the melting point lay within 144 to 145 °C. In the data set with ERK1/2, the “ERK1/2 degradative activity (in words)” value is listed as “effective ERK1/2 degraders” and it took 0.699 ± 0.361 µM to reach half-maximal degradation (DC50).

As to `Cc1cccc(CN2C(=O)c3cc(-c4nc(Nc5ccnc(C#CCCN(C)CCCCCCCCCCCC(=O)N[C@H](C(=O)N6C[C@H](O)C[C@H]6C(=O)N[C@@H](C)c6ccc(-c7scnc7C)cc6)C(C)(C)C)c5)ncc4C)cn3C[C@H]2C)n1` [Compound B2-12J], the “ERK1/2 degradative activity (in words)” value in the data set on ERK1/2 is reported as “lost its degradative activity”.

`Cc1cccc(CN2C(=O)c3cc(-c4nc(Nc5ccnc(C#CCCN6CCN(CCCCCCCCCC(=O)N[C@H](C(=O)N7C[C@H](O)C[C@H]7C(=O)N[C@@H](C)c7ccc(-c8scnc8C)cc7)C(C)(C)C)CC6)c5)ncc4C)cn3C[C@H]2C)n1` [Compound B2-12P] yielded a melting point of 145 to 146 °C. In addition, in the data set on ERK1/2, the “ERK1/2 degradative activity (in words)” value is given as “significantly increased DC50 value” and it took 3.8 ± 1.82 µM to reach half-maximal degradation (DC50).

Take `Cc1cccc(CN2C(=O)c3cc(-c4nc(Nc5ccnc(C#CCCNC(=O)CCCCCCCCCCC(=O)N[C@H](C(=O)N6C[C@H](O)C[C@H]6C(=O)N[C@@H](C)c6ccc(-c7scnc7C)cc6)C(C)(C)C)c5)ncc4C)cn3C[C@H]2C)n1` [Compound B2-12]: the melting point lay within 143 to 144 °C. For the same compound, the IC50 in the data set on A375 cells worked out at 7.5 ± 6.1 µM. Moreover, in the data set on Calu-6 cells, the IC50 was over 30 µM. Besides, the IC50 in the data set with HCT116 cells came to 11.7 ± 10.5 µM. For the same compound, in the data set with ERK1/2, the “ERK1/2 degradative activity (in words)” value is “effective ERK1/2 degraders”, the DCmax result is on record as “exceeding 65%” and the DC50 was determined as 0.383 ± 0.208 µM.

On to `Cc1cccc(CN2C(=O)c3cc(-c4nc(Nc5ccnc(C#CCCNC(=O)CCCCCCCCCCCCC(=O)N[C@H](C(=O)N6C[C@H](O)C[C@H]6C(=O)N[C@@H](C)c6ccc(-c7scnc7C)cc6)C(C)(C)C)c5)ncc4C)cn3C[C@H]2C)n1` [Compound B2-14], for which the melting point is 128 to 129 °C. Moreover, in the data set with ERK1/2, the “ERK1/2 degradative activity (in words)” value is given as “effective ERK1/2 degraders”, the DCmax result is on record as “exceeding 65%” and the DC50 stood at 0.307 ± 0.191 µM.
